Reference: PubChem BioAssay (NCI)
Where “and” joins values, the source holds several entries; their conditions need not be identical. Equal values may be shown once.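 Cultured in 96-well plates, cells were exposed to test compound for 48 hours across five concentrations. At the GI50, growth is halved. The concentration for full growth arrest is given as TGI.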

What was measured:
Assay in all cases: inhibition of tumour cell growth, NCI panel, 48 h
UACC-62 melanoma = test system: UACC-62 melanoma
MCF7 breast = test system: MCF7 breast
OVCAR-5 ovarian = test system: OVCAR-5 ovarian
786-0 renal = test system: 786-0 renal
NCI-H226 lung = test system: NCI-H226 lung
SW-620 colon = test system: SW-620 colon
LXFL 529 NSCLC = test system: LXFL 529 NSCLC
TK-10 renal = test system: TK-10 renal
DMS 273 small cell lung = test system: DMS 273 small cell lung
SN12C renal = test system: SN12C renal

Compound | TGI (UACC-62 melanoma) | TGI (MCF7 breast) | TGI (OVCAR-5 ovarian) [µM] | TGI (786-0 renal) | TGI (NCI-H226 lung) | TGI (SW-620 colon) | TGI (LXFL 529 NSCLC) [µM] | TGI (TK-10 renal) | TGI (DMS 273 small cell lung) [µM] | TGI (SN12C renal) | GI50 (UACC-62 melanoma) [µM] | GI50 (MCF7 breast) [µM] | GI50 (OVCAR-5 ovarian) [µM] | GI50 (786-0 renal) [µM] | GI50 (NCI-H226 lung) [µM] | GI50 (SW-620 colon) [µM] | GI50 (TK-10 renal) [µM] | GI50 (SN12C renal) [µM]
CCOC(=O)CN1C(=O)c2cc([N+](=O)[O-])cc3cc([N+](=O)[O-])cc(c23)C1=O | > 100 µM | > 100 µM | > 100 | > 100 µM | > 100 µM | > 100 µM | > 100 | > 100 µM | > 100 | > 100 µM | – | – | – | – | – | – | – | –
COc1ccc2c(c1)CN1CCc3c(cc(OC)c(OC)c3OC)C1C2 (stereo not given) | > 100 µM | – | > 100 | > 100 µM | > 100 µM | > 100 µM | > 100 | > 100 µM | > 100 | > 100 µM | – | – | – | – | – | – | – | –
COc1cc(/C=N/N=C(\N)NO)c([N+](=O)[O-])cc1OC | 59 µM | – | > 100 | > 100 µM | 54.4 µM | > 100 µM | > 100 | > 100 µM | > 100 | > 100 µM | – | – | – | – | – | – | – | –
CCC1=C(CC2NCCc3ccccc32)CC2c3cc(OC)c(OC)cc3CCN2C1 (stereo not given) | 27.5 µM and 6.66 µM | 10.6 µM and 2.3 µM | – | 17.1 µM and 2.9 µM | 37.4 µM and 4.74 µM | 13.4 µM and 6.81 µM | > 100 | 30.4 µM and 3.83 µM | 3.02 | 35.6 µM and 7.34 µM | 13.9 | 2.95 | 6.15 | 4.04 | 4.7 | 3.62 | 6.08 | 4.92
COc1cc(C(=O)c2cocc2C(=O)c2ccc3c(c2)OCO3)cc(OC)c1OC | > 47.3 µM | > 100 µM | > 66.3 | 39.7 µM | 21.1 µM | > 57.8 µM | > 31.6 | 47.2 µM | > 100 | 56.1 µM | – | – | – | – | – | – | – | –
